# Source: patent publication US5510260A, “Prolactin secreting cell line and method of obtaining the same” (Unversity of Virginia Patent Foundation, priority 1993, dated 1996)
# No end group written: not given here.
# Columns and labels:
# [1] = system: MMQ cells; test: cAMP levels in the MMQ cells; format: cell-based, rat; details: for effect on the dopaminergic inhibition of stimulated cAMP: pertussis toxin as pre-treatment of the cells
# Text: Further studies included measurement of the cAMP levels in the MMQ cells.
# [2] = system: MMQ cells; test: 45Ca2+ uptake/efflux in MMQ (floater) cells; format: cell-based, rat
# Description: The MMQ cell line was derived from the pituitary tumor 7315a, a cell line that secretes both prolactin and adrenocorticotrophin (ACTH). The MMQ cell line was obtained by cutting a 7315a tumor into small pieces and then dispersing the pieces into a population of single cells by means of incubating tumor pieces with collagenase. These cells were incubated in tissue culture flasks containing RPMI1640, 5% NHS, 5% FCS. […] The floater cells, which we have designated MMQ, were small granular and irregularly shaped in contrast to the cells that adhered to the flasks.
# [3] = system: MMQ cells
# Text: The non-adherent cell has been designated MMQ.
# The clonal cell line MMQ, was derived from the non-adherent cells which secrete only prolactin and no detectable amounts of ACTH or any other pituitary hormones.
# [4] = system: adherent cells of pituitary tumor 7315a
# Text: This isolation involved the use of the solid tumor which was dispersed with collagenase and cultured in RPMI-1640 containing normal horse and calf serum. As previously mentioned, one population is adherent to plastic-ware and the other is non-adherent.
compound,measurement,setting,value
O=C(CCCN1CCC(O)(c2ccc(Cl)cc2)CC1)c1ccc(F)cc1 [Haloperidol],effect on the dopaminergic inhibition of stimulated cAMP,[1],blocked the dopaminergic effects
C[C@H](N)C(=O)NCC(=O)N[C@H]1CSSC[C@@H](C(=O)O)NC(=O)[C@H](CO)NC(=O)[C@H]([C@@H](C)O)NC(=O)[C@H](Cc2ccccc2)NC(=O)[C@H]([C@@H](C)O)NC(=O)[C@H](CCCCN)NC(=O)[C@H](Cc2c[nH]c3ccccc23)NC(=O)[C@H](Cc2ccccc2)NC(=O)[C@H](Cc2ccccc2)NC(=O)[C@H](CC(N)=O)NC(=O)[C@H](CCCCN)NC1=O [Somatostatin],attenuation of forskolin and VIP-stimulated cAMP generation,[1]; SRIF 100 nM,30%
NCCc1ccc(O)c(O)c1 [dopamine],effect on maitotoxin-induced efflux of 45Ca2+,"[2]; addition of dopamine, MMQ cells",blocked
same,inhibition at 1 µM,"[1]; Rattus norvegicus, 1 μM of dopamine, read-out: attenuation of forskolin and VIP-stimulated cAMP generation",50%
same,"effect on VIP-, forskolin- and choleratoxin-increased cellular cAMP levels",[1]; dopamine 50-1000 nM,inhibited each response in a concentration-dependent manner
same,effect of dopamine on prolactin-release after long-term culture,[3]; MMQ cells after more than a year in culture,has not been altered
same,inhibition of maitotoxin-induced prolactin release,[3]; clonal MMQ cells,50-80%
same,effect on prolactin release stimulated by maitotoxin,[3]; non-adherent cells,inhibits prolactin release
same,effect on prolactin release stimulated by maitotoxin,[4],not in the adherent ones
C=C[C@@]1(C)CC(=O)[C@]2(O)[C@@]3(C)[C@@H](O)CCC(C)(C)[C@@H]3[C@H](O)[C@H](OC(C)=O)[C@@]2(C)O1 [forskolin],cellular cAMP levels,[1],increased
C=CC[C@H](C)[C@H](C)C[C@@H](O)[C@H](O)[C@@H]1CC[C@@]2(C)O[C@@]3(C)C[C@@]4(C)O[C@H]5/C=C\C[C@H]6O[C@H]7C[C@H]8O[C@H]9C[C@@]%10(C)O[C@@](C)([C@@H]%11CC[C@H]%12O[C@@]%13(C)C[C@H]%14O[C@@]%15(C)C[C@H]%16O[C@@]%17(C)C[C@@H](O)[C@H]([C@@H]%18O[C@H]%19[C@H](O)[C@@H](O)[C@H](C[C@H](O)C[C@@H](O)[C@@H]%20O[C@H]%21[C@H](O)[C@@H](O)[C@H]([C@@H]%22O[C@@H]%23[C@H](O)[C@H]%24O[C@H]%25C[C@H]%26O[C@@H](C[C@H](O)[C@@H](O)[C@H]%27O[C@H]%28[C@H](O)[C@H]%29O[C@H]%30C[C@H]%31O[C@H]%32[C@@H](O)[C@@H](O)[C@H]([C@H](C)[C@H](O)[C@H](C)CC[C@H](OS(=O)(=O)O)[C@H](O)[C@H](C)C[C@@H](O)C(=C)/C(C)=C/CO)O[C@@H]%32[C@H](O)C[C@]%31(C)O[C@@H]%30C[C@]%29(C)O[C@@H]%28C[C@H]%27O)[C@H](OS(=O)(=O)O)[C@H](O)[C@@H]%26O[C@@H]%25C[C@@H]%24O[C@H]%23[C@H](O)[C@H]%22O)O[C@H]%21C[C@H]%20O)O[C@H]%19C[C@H]%18O)O[C@@H]%17[C@H](O)[C@]%16(C)O[C@@H]%15CC[C@]%14(C)O[C@@H]%13C[C@@H]%12O%11)[C@H](O)C[C@@H]%10O[C@]9(C)CC[C@]8(C)O[C@]7(C)C[C@@H]6O[C@@H]5C[C@@H]4O[C@@H]3C[C@@H]2O1 [maitotoxin],response of MMQ cells to maitotoxin (45Ca2+),[2]; MMQ floater cells loaded with 45Ca2+,modest response
"Vasoactive intestinal peptide (HSDAVFTDNYTRLRKQMAVKKYLNSILN; ends and bridges not checked; UniProt P01282 125-152, looked up) [peptide that increases cellular cAMP levels]",cellular cAMP levels,[1],increased
choleratoxin,cellular cAMP levels,[1],increased
pertussis toxin,effect on the dopaminergic inhibition of stimulated cAMP,[1],blocked the dopaminergic effects
